Like-named read-outs stand apart in the source and are kept apart here.
Columns and labels:
5-HT transporter (SERT) = 5-HT transporter (SERT) (Homo sapiens, UniProt P31645); conditions: cited from earlier work
healthy male subjects = conditions: cited from earlier work; for psychoactive or cardiostimulant properties of metabolites administered to humans: in vivo
[1] = LSD vs. MDMA (45); cited from earlier work
healthy subjects [2] = test: 5-Dimensional Altered States of Consciousness (5D-ASC) scale, Clinical Study I; format: in vivo, human; conditions: 6 subjects
Method: 5-Dimensional Altered States of Consciousness (5D-ASC): The 5-dimensional Altered States of Consciousness (5D-ASC) Scale is a visual analog scale consisting of 94 items (117, 118). The instrument contains five main scales (FIG. 6A) and 11 newer subscales (FIG. 6B) assessing mood, anxiety, derealization, depersonalization, changes in perception, auditory alterations, and reduced vigilance. The scale is well-validated (118). The 5D-ASC scale was administered once at the end of the session and subjects were instructed to retrospectively rate peak alterations that have been experienced during the study session. Each item of the scale is scored on a 0-100 mm VAS. The attribution of the individual items to the subscales of the 5D-ASC was analyzed according to (117, 118) and as shown in FIGS. 6A-6B. The scale was be administered once at the end of each test session.

healthy subjects [3] = test: Autonomic measures (blood pressure, heart rate, body temperature), Clinical Study I; format: in vivo, human
Method: Autonomic measures: Blood pressure, heart rate, and body temperature were recorded at baseline and repeatedly throughout the session. Blood pressure (systolic and diastolic) and heart rate were measured with an automatic oscillometric device. Body temperature was measured with an ear thermometer.

healthy subjects [4] = test: Adverse effects, list of complaints (LC), Clinical Study I; format: in vivo, human; conditions: for mean total LC score: six human volunteers, oral mescaline 300 mg, psilocybin 20 mg, LSD 100 μg, LC 12 hours after administration
Method: Adverse effects (list of complaints): The list of complaints (LC) consists of 66 items offering a global score measuring physical and general discomfort (119). The LC list was administered 12 hours after administration of the drug with reference to complaints throughout the entire session.

healthy subjects [5] = conditions: mescaline sulfate 500 mg, 12 subjects, MDE, 14 subjects, cited from earlier work
D2 receptors = D2 receptors (Homo sapiens, UniProt P14416); conditions: FIG. 3; cited from earlier work
D2 receptors, sequence (P14416 whole entry): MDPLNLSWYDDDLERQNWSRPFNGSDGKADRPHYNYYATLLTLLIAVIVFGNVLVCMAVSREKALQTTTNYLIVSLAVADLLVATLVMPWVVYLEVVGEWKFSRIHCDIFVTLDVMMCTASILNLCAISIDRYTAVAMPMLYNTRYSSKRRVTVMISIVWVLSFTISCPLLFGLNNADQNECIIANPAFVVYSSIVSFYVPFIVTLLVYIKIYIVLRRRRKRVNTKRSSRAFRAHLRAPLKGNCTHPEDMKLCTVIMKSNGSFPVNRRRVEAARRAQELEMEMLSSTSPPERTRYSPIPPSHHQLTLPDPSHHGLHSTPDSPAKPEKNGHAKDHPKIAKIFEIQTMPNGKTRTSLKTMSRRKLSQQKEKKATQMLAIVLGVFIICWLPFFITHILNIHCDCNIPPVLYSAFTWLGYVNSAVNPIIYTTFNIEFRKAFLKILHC

humans = conditions: cited from earlier work
rodent = rodent tests (49); cited from earlier work
healthy subjects [6] = test: Visual Analog Scales (VAS) of acute subjective effects, Clinical Study I; conditions: for duration of subjective effects (VAS any drug effect): mescaline 300 mg, psilocybin 20 mg, LSD 100 μg oral
5-HT2A receptor = 5-HT2A receptor (Homo sapiens, UniProt P28223); conditions: FIG. 2 (62); cited from earlier work
5-HT2A receptor, sequence (P28223 whole entry): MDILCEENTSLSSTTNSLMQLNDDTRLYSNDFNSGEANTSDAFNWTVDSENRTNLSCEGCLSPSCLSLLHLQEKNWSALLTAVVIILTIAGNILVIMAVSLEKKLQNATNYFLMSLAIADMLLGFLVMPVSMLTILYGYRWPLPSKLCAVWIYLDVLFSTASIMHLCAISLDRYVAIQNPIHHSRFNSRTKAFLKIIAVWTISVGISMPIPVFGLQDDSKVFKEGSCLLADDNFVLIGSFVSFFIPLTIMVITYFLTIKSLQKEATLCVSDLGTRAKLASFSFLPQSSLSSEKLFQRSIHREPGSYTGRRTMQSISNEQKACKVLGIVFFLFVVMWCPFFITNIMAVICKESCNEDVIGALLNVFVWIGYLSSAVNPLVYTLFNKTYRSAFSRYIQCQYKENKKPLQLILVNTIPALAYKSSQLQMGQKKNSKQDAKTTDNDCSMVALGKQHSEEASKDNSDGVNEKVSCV

healthy subjects [7] = conditions: 100 μg dose; cited from earlier work
[8] = 500 mg mescaline hydrochloride orally
[9] = six healthy volunteers, doses used

5-HT transporter (SERT), sequence (P31645 whole entry): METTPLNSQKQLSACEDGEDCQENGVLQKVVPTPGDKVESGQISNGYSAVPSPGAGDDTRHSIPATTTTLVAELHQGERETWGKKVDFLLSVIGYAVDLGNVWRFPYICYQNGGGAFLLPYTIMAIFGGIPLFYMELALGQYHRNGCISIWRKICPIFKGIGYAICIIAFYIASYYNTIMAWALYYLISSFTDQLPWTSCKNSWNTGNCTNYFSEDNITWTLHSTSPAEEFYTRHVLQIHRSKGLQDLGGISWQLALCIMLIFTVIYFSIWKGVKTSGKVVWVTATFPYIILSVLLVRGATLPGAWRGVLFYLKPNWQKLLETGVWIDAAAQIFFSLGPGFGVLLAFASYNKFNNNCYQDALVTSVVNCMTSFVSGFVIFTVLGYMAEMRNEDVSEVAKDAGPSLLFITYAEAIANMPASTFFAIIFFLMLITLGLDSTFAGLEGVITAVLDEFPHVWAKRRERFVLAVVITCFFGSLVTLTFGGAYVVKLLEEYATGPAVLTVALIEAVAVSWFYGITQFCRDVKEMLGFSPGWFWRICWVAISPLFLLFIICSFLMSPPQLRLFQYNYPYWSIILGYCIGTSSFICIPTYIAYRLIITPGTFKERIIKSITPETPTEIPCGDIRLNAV

**Q.** Which “interaction with the SERT” value (5-HT transporter (SERT)) does the source give for `CN(C)CCc1c[nH]c2cccc(O)c12` [Psilocin, reference compound] here?
**A.** Its value is “inhibits the 5-HT transporter (SERT)”.

**Q.** With `COc1cc(CCNC(C)=O)cc(OC)c1OC` [NAM, N-acetyl-mescaline] as the compound, how does the “share excreted in urine as this species after mescaline” value (“share excreted in urine” below) (healthy male subjects; [8]) read?
**A.** The value was 0.1%.

**Q.** And the “psychoactive or cardiostimulant properties of metabolites administered to humans” value (healthy male subjects)?
**A.** Its value is “not to have psychoactive or cardiostimulant properties”.

**Q.** For `COc1cc(CCNC(C)=O)cc(O)c1OC` [N-acetyl-(3,4,dimethoxy-5-hydroxyphenylethalymine], which “share excreted in urine” value (healthy male subjects; [8]) is on record?
**A.** The value was 5%.

**Q.** Which “share excreted in urine” value (healthy male subjects; [8]) does the source give for `COc1cc(CC(=O)O)cc(OC)c1OC` [TMPA, 3,4,5-trimethoxyphenylacetic acid] here?
**A.** Its value is 27-30%.

**Q.** And the “psychoactive or cardiostimulant properties of metabolites administered to humans” value (healthy male subjects)?
**A.** The value was “not to have psychoactive or cardiostimulant properties”.

**Q.** For `CNC(C)Cc1ccc2c(c1)OCO2` (stereo not drawn) [MDMA, 3,4-methylendioxymethamphetamine], which AED score [1] is on record?
**A.** The AED score was 1.3.

**Q.** What about the OB score [1] of the same compound?
**A.** The OB score was 9.3.

**Q.** What about the VR score [1] of the same compound?
**A.** The VR score was 4.1.

**Q.** For `COc1cc(CCN)cc(OC)c1OC` [mescaline, 3,4,5-trimethoxyphenethylamine], which “total alterations of consciousness (total 3D-OAV score) relative to LSD (100 μg) or psilocybin (20 mg)” value (healthy subjects [2]; mescaline 300 mg oral, peak responses rated 12 hours after administration) is on record?
**A.** The value was “approximately 50%”.

**Q.** What about the “increases in blood pressure, heart rate and body temperature after mescaline” value (healthy subjects [3]; 6 subjects, mescaline 300 mg) of the same compound?
**A.** Its value is “tended to be attenuated compared with both psilocybin and LSD”.

**Q.** And the thermogenic effects (healthy subjects [3]; Example 1)?
**A.** The thermogenic effects was “reduced thermogenic effects of mescaline compared to psilocybin”.

**Q.** And the “effects on heart rate” value (healthy subjects [3]; doses used, not statistically confirmed)?
**A.** The value was “tended to be lower than those of psilocybin”.

**Q.** What about the “overall tolerability of acute administration” value (healthy subjects [4]; doses used) of the same compound?
**A.** The value was “overall similar to that of LSD or psilocybin”.

**Q.** What about the “mean total LC score” value (healthy subjects [4]) of the same compound?
**A.** The value was 8.8.

**Q.** And the “average APZ score AIA (anxious ego-dissolution)” value (healthy subjects [5])?
**A.** The value was 7.1.

**Q.** And the “average APZ score VUS (visionary restructuralization)” value (healthy subjects [5])?
**A.** Its value is 7.4.

**Q.** And the “average APZ score OSE (oceanic boundlessness)” value (healthy subjects [5]; indirect comparison)?
**A.** The value was 6.2.

**Q.** What about the “affinity for D2 receptors” value (D2 receptors) of the same compound?
**A.** The value was “no affinity”.

**Q.** And the “interaction with the SERT” value (5-HT transporter (SERT))?
**A.** The value was “do not interact with the SERT”.

**Q.** What about the “dose to induce a full psychedelic experience” value (humans; (51, 86)) of the same compound?
**A.** Its value is “about 300 mg”.

**Q.** And the “potency relative to LSD (times less potent)” value (humans; (86))?
**A.** The value was 1000-3000 times.

**Q.** And the “potency relative to psilocybin (times less potent)” value (humans; (86))?
**A.** Its value is “around 30 times”.

**Q.** And the subjective effect duration (humans; moderate dose (86))?
**A.** The subjective effect duration was 10 to 12 h.

**Q.** What about the “duration of subjective effects” value (healthy male subjects; [8]) of the same compound?
**A.** Its value is 12 to 14 h.

**Q.** What about the “onset of subjective effects” value (healthy male subjects; [8]) of the same compound?
**A.** Its value is no more than 30 min.

**Q.** And the “share excreted in urine” value (healthy male subjects; [8])?
**A.** The value was 55-60%.

**Q.** What about the “time of peak subjective effects” value (healthy male subjects; [8]) of the same compound?
**A.** The value was 4 h.

**Q.** And the “onset of subjective effects” value (healthy male subjects; 500 mg mescaline hydrochloride orally, listed as mescaline hydrochloride)?
**A.** Its value is “approximately 30 min”.

**Q.** What about the “delay of the peak subjective response compared with the plasma peak” value (healthy male subjects; 500 mg orally) of the same compound?
**A.** Its value is “about 2 hours”.

**Q.** And the “radioactivity administered excreted within 24 hours” value (healthy male subjects; 500 mg orally)?
**A.** The value was 87%.

**Q.** What about the “radioactivity administered excreted within 48 h” value (healthy male subjects; 500 mg orally) of the same compound?
**A.** Its value is 92%.

**Q.** What about the half-life (healthy male subjects; mescaline hydrochloride 500 mg orally, radioactivity ingested as mescaline) of the same compound?
**A.** The half-life was “approximately six”.

**Q.** What about the abuse-related rewarding effects (rodent) of the same compound?
**A.** The abuse-related rewarding effects was “no abuse-related rewarding effects”.

**Q.** And the “area under the effect-time curve, visual and auditory perception (VAS)” value (healthy subjects [6]; doses used)?
**A.** The value was “similar”.

**Q.** What about the “bad drug effect (VAS) peaks” value (healthy subjects [6]; doses used) of the same compound?
**A.** Its value is “peaks lower for LSD and mescaline compared with psilocybin”.

**Q.** What about the “changed time perception (VAS)” value (healthy subjects [6]; doses used) of the same compound?
**A.** The value was “trends toward lower changes”.

**Q.** What about the “ego-dissolution (VAS)” value (healthy subjects [6]; doses used) of the same compound?
**A.** The value was “lower ratings”.

**Q.** And the “nausea (VAS)” value (healthy subjects [6]; doses used)?
**A.** The value was “lowest nausea ratings”.

**Q.** And the “openness (VAS)” value (healthy subjects [6]; doses used)?
**A.** The value was “smallest peak effect but a longer lasting effect compared with psilocybin”.

**Q.** And the “synesthesia, "sounds influenced what I saw" (VAS)” value (healthy subjects [6]; doses used)?
**A.** Its value is “lower ratings”.

**Q.** And the “visual and auditory perception change (VAS), ratings/peak” value (healthy subjects [6]; doses used)?
**A.** Its value is “lower peak effects than both psilocybin and LSD”.

**Q.** What about the “talkative (VAS)” value (healthy subjects [6]; first hours) of the same compound?
**A.** Its value is “longest effect”.

**Q.** And the “area under the effect over time curve (VAS any/good drug effect)” value (healthy subjects [6]; [9])?
**A.** Its value is “similar”.

**Q.** What about the “peak effect (VAS any/good drug effect)” value (healthy subjects [6]; [9]) of the same compound?
**A.** Its value is “lower than those of psilocybin and LSD”.

**Q.** And the “time to peak of subjective effects (VAS any/good drug effect)” value (healthy subjects [6]; [9])?
**A.** The value was “took longer to peak compared to those of psilocybin and LSD”.

**Q.** What about the “duration of subjective effects (VAS any drug effect)” value (healthy subjects [6]; six healthy volunteers) of the same compound?
**A.** Its value is “lasted similarly long”.

**Q.** For `CCN(CC)C(=O)[C@@H]1C=C2c3cccc4[nH]cc(c34)C[C@H]2N(C)C1` [LSD, lysergic acid diethylamide, reference compound], which “overall peak effects (total 3D-OAV scores)” value (healthy subjects [2]; LSD 100 μg, psilocybin 20 mg) is on record?
**A.** Its value is “equally strong overall peak effects”.

**Q.** And the “mean total LC score” value (healthy subjects [4])?
**A.** The value was 5.4.

**Q.** What about the AED score [1] of the same compound?
**A.** The AED score was 26.

**Q.** And the OB score [1]?
**A.** Its OB score is 43.

**Q.** What about the VR score [1] of the same compound?
**A.** The VR score was 50.

**Q.** And the “binding potency at the 5-HT2A receptor (rank)” value (5-HT2A receptor)?
**A.** Its value is “binds most potently”.

**Q.** What about the duration of effects (healthy subjects [7]) of the same compound?
**A.** Its duration of effects is 8 h.

**Q.** What about the “time of peak responses” value (healthy subjects [7]) of the same compound?
**A.** The value was 3 h.

**Q.** What about the “area under the effect-time curve, visual and auditory perception (VAS)” value (healthy subjects [6]; doses used) of the same compound?
**A.** Its value is “greater”.

**Q.** What about the “bad drug effect (VAS) peaks” value (healthy subjects [6]; doses used) of the same compound?
**A.** The value was “peaks lower for LSD and mescaline compared with psilocybin”.

**Q.** What about the “ego-dissolution (VAS)” value (healthy subjects [6]; doses used) of the same compound?
**A.** Its value is “mostly increased”.

**Q.** And the “stimulated (VAS)” value (healthy subjects [6]; doses used)?
**A.** Its value is “greater stimulation than mescaline”.

**Q.** What about the “synesthesia, "sounds influenced what I saw" (VAS)” value (healthy subjects [6]; doses used) of the same compound?
**A.** The value was “highest ratings”.

**Q.** And the “visual and auditory perception change (VAS), ratings/peak” value (healthy subjects [6]; doses used)?
**A.** The value was “highest ratings”.

**Q.** And the “area under the effect over time curve (VAS any/good drug effect)” value (healthy subjects [6]; [9])?
**A.** The value was “greater”.

**Q.** What about the “duration of subjective effects (VAS any drug effect)” value (healthy subjects [6]; six healthy volunteers) of the same compound?
**A.** Its value is “lasted similarly long”.

**Q.** With `CN(C)CCc1c[nH]c2cccc(OP(=O)(O)O)c12` [psilocybin, reference compound] as the compound, how does the “increase in blood pressure and body temperature compared with the other active substances” value (healthy subjects [3]; 6 subjects) read?
**A.** Its value is “more pronounced and shorter-lasting increase”.

**Q.** And the “mean total LC score” value (healthy subjects [4])?
**A.** The value was 6.8.

**Q.** What about the “nausea (VAS)” value (healthy subjects [6]; doses used) of the same compound?
**A.** Its value is “highest”.

From patent US20220265582A1, “EFFECTS OF MESCALINE AND OF MESCALINE ANALOGS (SCALINES) TO ASSIST PSYCHOTHERAPY” (Universitätsspital Basel, priority 2021, published 2022)
